Measured values published in patent publication US6103733A, “Method for increasing HDL cholesterol levels using heteroaromatic phenylmethanes” (priority 1998, dated 2000).
Where two headings read alike, the source gives them in different places.

Columns and labels:
HDL2 = assay: HDL2/total cholesterol ratio after administration over several days; assay type: in vivo; settings: pretreated rats; in words
Protocol: (§1) A correlation between induction of CYP3A and an increase in serum HDL-cholesterol was supported by our early experiments in which selective CYP3A inducers (Clotrimazole, dexamethasone) were administered to rats over a period of several days, and the effect on liver/body weight ratios and on HDL-cholesterol/total cholesterol ratios determined. […] A positive relationship between cytochrome P450 induction and improvement of serum lipid levels was also found.

HDL-cholesterol [1] = assay: Serum HDL-cholesterol level after feeding of the compound over 8 days; assay type: in vivo; settings: feeding over 8 days, rats; in words
From the text: FIG. 2 represents a fold increase of HDL-cholesterol per compound;
We have invented a family of related compounds which cause a significant pharmacological elevation of serum high density lipoprotein (HDL-cholesterol) concentration from 20% to greater than 200%. […] The effect on HDL cholesterol was paralleled by an elevation in the level of apoprotein A1 (a protein component of HDL) and by elevation of apo A1 messenger RNA in treated animals.
The effect of CYP3A inducers on levels of HDL-cholesterol was determined by administration of the compound by feeding over 8 days followed by sacrifice of the animal and determination of HDL-cholesterol levels. The effects of benzylimidazole (IV), clotrimazole, the five high magnitude CYP3A inducers and four compounds showing intermediate CYP3A inducing activity were evaluated. […] The significant linear correlation between the increase in HDL-cholesterol and the increase in ethosuximide clearance is shown in FIG. 3, and supports the belief that the activities are related.

CYP3A [2] = settings: rats; cited from earlier work
CYP3A [3] = settings: human hepatocytes; cited from earlier work
[4] = Liver/body weight ratio after administration over several days; assay type: in vivo; settings: rats, indirect sign of increased cytochrome P450 content
Protocol: as §1

CYP3A [5] = assay: CYP3A induction measured as increase in rate of ethosuximide clearance after 8-day pretreatment; assay type: in vivo, rats; settings: for CYP3A activity induced compared with clotrimazole (Compound (III)): measured by ethosuximide clearance, in words; for increase in ethosuximide clearance: 8-day pretreatment, rats
Protocol: FIG. 1 represents a fold increase in ethosuxinide clearances following an 8-day pretreatment schedule of the azoles;
Using clotrimazole (Compound (III)) as a lead compound, the effect of structure on the ability of a compound to induce CYP3A activity was determined, as measured by the test compound's ability to increase the rate of ethosuximide clearance. Over 40 structural modifications of clotrimazole were tested and significant differences in the ability to induce CYP3A activity was observed.
Analysis of the effect of substitution on the ability of a compound to induce CYP3A activity enables us to propose requirements for the induction in vivo. First, a heteroaromatic nucleus containing basic nitrogen must be present. Significant activity (i.e. >2 fold increase in ethosuximide clearance) is achieved only using substituted imidazoles, 2-methylimidazole (XIV), or in one case, pyridine (XVI). […] A variety of substituents were introduced into a single aryl ring of triphenylmethylimidazole. Most of the monosubstituted 1-triphenylmethylimidazoles produced inducing activity lower than that measured for the unsubstituted member of the series, regardless of the nature of the substituent. High magnitude CYP3A induction (i.e. >3-fold increase in ethosuximide clearance was found in only four substituted triphenylmethyl imidazoles: (XXXI)(meta-chloro). (XXXIII)(para chloro), (XXXVIII)(metafluoro).

apoA1 = settings: rats; cited from earlier work
HDL-cholesterol [6] = settings: epileptic subjects vs matched patients without epilepsy; phenobarbital and/or phenytoin; cited from earlier work
cytochromes P450 = settings: cited from earlier work
HDL cholesterol = settings: prospective experiments; cited from earlier work
HDL-cholesterol [7] = settings: rats; cited from earlier work

Clc1ccccc1C(c1ccccc1)(c1ccccc1)n1ccnc1 [III]
HDL2/total cholesterol ratio (HDL2): noteworthy improvement in HDL2/total cholesterol ratios | effect on HDL-cholesterol (HDL-cholesterol [1]): significant effect on HDL-cholesterol | inducer of CYP3A (CYP3A [2]): relatively selective inducer | inducer of CYP3A (CYP3A [3]): relatively selective inducer | liver/body weight ratio [4]: markedly increased liver/body weight ratios

c1ccc(C(c2ccccc2)(c2ccccc2)n2ccnc2)cc1 [V, 1-triphenylmethylimidazole]
CYP3A activity induced compared with clotrimazole (Compound (III)) (CYP3A [5]): significantly more CYP3A activity than did the lead compound

c1ccc(C(c2ccccc2)n2ccnc2)cc1 [XIII, 1-diphenylmethylimidazole]
CYP3A inducing activity (CYP3A [5]; structure-activity statement in words, ethosuximide clearance): progressively lost

Cc1nccn1C(c1ccccc1)(c1ccccc1)c1ccccc1 [XIV]
increase in ethosuximide clearance (CYP3A [5]): > 2 fold

c1ccc(Cc2ccncc2)cc1 [XVI]
increase in ethosuximide clearance (CYP3A [5]): > 2 fold

Clc1ccc(C(c2ccccc2)(c2ccccc2)n2ccnc2)cc1 [XXXIII]
increase in ethosuximide clearance (CYP3A [5]): > 3 fold | CYP3A activity induced compared with clotrimazole (Compound (III)) (CYP3A [5]): significantly more CYP3A activity than did the lead compound

Fc1ccc(C(c2ccccc2)(c2ccccc2)n2ccnc2)cc1 [XXXIX]
CYP3A activity induced compared with clotrimazole (Compound (III)) (CYP3A [5]): significantly more CYP3A activity than did the lead compound

Clc1cccc(C(c2ccccc2)(c2ccccc2)n2ccnc2)c1 [XXXI]
increase in ethosuximide clearance (CYP3A [5]): > 3 fold | CYP3A activity induced compared with clotrimazole (Compound (III)) (CYP3A [5]): significantly more CYP3A activity than did the lead compound

Fc1cccc(C(c2ccccc2)(c2ccccc2)n2ccnc2)c1 [XXXVIII]
increase in ethosuximide clearance (CYP3A [5]): > 3 fold | CYP3A activity induced compared with clotrimazole (Compound (III)) (CYP3A [5]): significantly more CYP3A activity than did the lead compound

C[C@@H]1C[C@H]2[C@@H]3CCC4=CC(=O)C=C[C@]4(C)[C@@]3(F)[C@@H](O)C[C@]2(C)[C@@]1(O)C(=O)CO [dexamethasone]
HDL2/total cholesterol ratio (HDL2): noteworthy improvement in HDL2/total cholesterol ratios | liver/body weight ratio [4]: markedly increased liver/body weight ratios

CCC1(c2ccccc2)C(=O)NC(=O)NC1=O [phenobarbital]
apoA1 (apoA1): increase HDL-cholesterol and apoA1 in rats | levels of HDL-cholesterol (HDL-cholesterol [6]): higher levels of HDL-cholesterol | inducer of the cytochromes P450 (cytochromes P450): known to be an inducer of the cytochromes P450 | total serum HDL cholesterol/total cholesterol ratio (HDL cholesterol): increases in total serum HDL cholesterol/total cholesterol ratios | HDL-cholesterol (HDL-cholesterol [7]): increase HDL-cholesterol

O=C1NC(=O)C(c2ccccc2)(c2ccccc2)N1 [phenytoin]
levels of HDL-cholesterol (HDL-cholesterol [6]): higher levels of HDL-cholesterol
